{"source": "patent US11084836B2", "about": "“Compositions useful in therapy of autophagy-related pathologies, and methods of making and using the same” (The University of Toledo, priority 2016, dated 2021)", "key": {"[1]": {"tested_on": "RG2 glioma cells", "assay": "Proliferative capacity of glioma cells, tetrazolium reduction assay", "format": "cell-based, rat", "protocol": "FIG. 37: Graph showing a reduction in proliferative capacity of RG2 glioma cells exposed to 2-n-hexyl-LKE-P. Glioma cells were plated at low density and treated with the indicated concentration of compound for 24 or 48 h, at which time relative cell number was estimated using a tetrazolium reduction assay.\nBiomarkers of autophagy have been positively correlated with relatively better prognosis (longer patient lifespan) in humans suffering from high grade glioma. Accordingly, phosphonate analogs were tested for ability to reduce replicative capacity in RG2 glioma cells wherein the compounds increase autophagy. Cells were plated at low density (approximately 25,000 cells/[…]) using general cell culture methods, and treated with logarithmic dilutions of test agent. After 24 or 48 hours, cell number was estimated by a tetrazolium reduction assay using a commercially available kit (Promega Aqueous OneStep™). […] By 48 h the cells had largely achieved confluence and became somewhat contact inhibited, thus reducing the difference between control and treatment groups."}, "[2]": {"tested_on": "RG2 glioma cells", "assay": "Autophagic flux assay: LC3-I to LC3-II conversion in the presence of bafilomycin-A1, western blot", "format": "cell-based, rat", "details": "for stimulation of autophagy / autophagic flux (LC3-II increase in presence of bafilomycin-A1): 4 h, 50 nM bafilomycin-A1; for potency of autophagy stimulation relative to LKE (ratio of LC3-II band densities): western blot densitometry", "protocol": "In the assay, cells are treated with subtoxic concentrations of bafilomycin-A, which blocks lysosomal acidification. This prevents autophagosome fusion with lysosomes at a specific point. […] Then, autophagy flux is measured by the conjugation of phosphatidylethanolamine to LC3-I, yielding an electrophoretically separable LC3-II. LC3-II acts as a link between nascent autophagosomes and cargo being directed into these structures. The autophagy intermediate protein LC3-II (a phosphatidylethanolamine-conjugated form of LC3-I) is measured by western blot. An autophagy enhancer will increase LC3-II in the presence of bafilomycin, whereas a compound that inhibits autophagy completion will not do so. Thus, the LC3A-I to LC3A-II conversion in the presence of bafilomycin-A1 constitutes a valid measure of autophagy.\nAutophagy is a complex process involving many different protein components, but predominant amongst its regulatory elements are the mammalian target of rapamycin complex-1 (mTORC1) and unc-51-like kinase-1 (ULK1, FIG. 14). mTORC1 is itself a kinase that inhibits ULK1. When nutrients and cell energy are limiting, mTORC1 is suppressed by the coordinated actions of tuberous sclerosis complex (TSC) proteins 1 and 2 (TSC1/2) and Rheb (Ras homolog enriched in the brain). This allows disinhibition of ULK1, which then associates with beclin-1 protein to form pre-autophagosomal structures. Autophagosomes mature in a process marked by phosphatidylethanolamine conjugation to microtubule associated protein 1 light chain 3 (LC3-I→LC3-II conversion). After lysosomal fusion, the autophagy components are turned over and the cycle completes. One of the most reliable ways to determine whether a treatment increases true autophagy flux is to measure LC3-I to LC3-II conversion in the absence and presence of the vacuolar ATPase inhibitor bafilomycin-A1. Bafilomycin neutralizes lysosomal pH, preventing autophagosome-lysosomal fusion, and traps LC3-II at a point prior to its turnover in mature autophagolysosomes.\nThe cells were then incubated for an additional 4 h. At termination, the cell culture medium was removed, cells were washed with PBS and lysed on ice in Pierce RIPA buffer containing protease and phosphatase inhibitors.\nAn increase in the intensity of this band in the presence of bafilomycin-A1 indicates increased autophagic flux.\nRG2 glioma cells (American Tissue Type Collection, ATTC, Rockville Md. USA) were treated for 4 h with 50 nM bafilomycin-A1 (previously dissolved to 1000× final concentration in dimethylsulfoxide). Thirty minutes after addition of bafilomycin, cells were treated with test agents at 100× final concentration. Cells were lysed in RIPA buffer containing protease and phosphatase inhibitors. Protein concentration was assayed and normalized to constant values (typically 5-7 mg/mL). Proteins were electrophoresed across 4-20% polyacrylamide gels and wet blotted onto polyvinylidine difluoride (PVDF) membranes. Proteins were blotted with commercially available antibodies against LC3."}, "[3]": {"tested_on": "SHSY5Y neurons", "details": "cited from earlier work"}, "[4]": {"tested_on": "3×Tg-AD mouse model of Alzheimer's disease", "details": "cited from earlier work"}, "[5]": {"details": "measurement of brain LKE levels and animal studies"}, "[6]": {"tested_on": "CRMP2", "details": "CRMP2-dependent fashion; cited from earlier work"}, "[7]": {"tested_on": "microglia", "details": "cell systems; cited from earlier work"}, "[8]": {"details": "cell systems and C. elegans; cited from earlier work"}, "[9]": {"tested_on": "SOD1^G93A mouse model of amyotrophic lateral sclerosis", "details": "cited from earlier work"}, "[10]": {"tested_on": "ULK1 system", "assay": "ULK1 / ULK1(p757) autophagy stimulation assay (mTOR pathway), western blot", "format": "cell-based, rat", "details": "RG2 cells, 24 h; read-out: EC50 on the ULK1 system (ULK1 increase and ULK1(p757) decrease)", "text": "This technique has been documented in the literature for use in the comparison of the potency of individual compounds, relative to a recognized standard, and this technique has become a standard method of autophagy analysis. In addition to quantitating the stimulation of autophagy for the compounds, relative to LKE, because it is cell based, this assay also provides evidence that the compounds can permeate cell membranes. This affords valuable information for the comparison of individual compounds to stimulate autophagy, and will allow them to be ranked for use in the determination of a structure activity relationship (SAR). […] For validation purposes, a second, quantitative autophagy stimulation assay was utilized. […] This second assay provides validation for the LC3 assay.\nWestern Blotting: The proteins were electrophoresed and wet-blotted to polyvinylidine difluoride membranes, blocked overnight in 4% bovine serum albumin, and developed using antibodies obtained from Cell Signaling Technology (LC3A: cat #. 4599; ULK1: cat #. 8054, ULK1(p757): cat #. 6880)."}, "[11]": {"tested_on": "C6 glioma tumor", "details": "C6 glioma xenograft into rat cortices; cited from earlier work"}, "[12]": {"tested_on": "permanent middle cerebral artery occlusion (pMCAO)", "details": "after pMCAO; cited from earlier work"}, "[13]": {"tested_on": "cells", "details": "H2O2 or t-butyl hydroperoxide; cited from earlier work"}, "[14]": {"tested_on": "neurons", "details": "glutamate toxicity; cited from earlier work"}, "[15]": {"tested_on": "EOC-20 microglia", "assay": "TNFα-stimulated microglial M1 activation, nitrite accumulation in culture medium", "format": "cell-based", "details": "cytokine (TNFα)-stimulated EOC-20 microglia, side-by-side", "protocol": "Reaction completion was monitored by thin-layer chromatography and product identity was confirmed by mass spectrometry (FIG. 31A). […] M1 activation of EOC-20 cells was assessed by measuring TNFα-stimulated nitrite production."}, "[16]": {"assay": "Stability of the isolated solid under high vacuum", "format": "physicochemical", "details": "isolated white solid, at least overnight", "protocol": "FIGS. 15A-15B show the ^1H NMR spectrum of 2-butyl-LK-P, with and without peak assignments. FIGS. 16A-16B show the ^1H NMR spectrum of 2-butyl-LK-P, with integration values and with and without peak assignments. ^1H NMR (CDCl3) δ 3.96 (br. s., 1H), 3.05 (d, J=12.4 Hz, 1H), 2.84-2.66 (m, 1H), 2.36 (br. s., 2H), 1.56-1.32 (m, 2H), 1.24 (d, J=6.2 Hz, 2H), 0.89-0.77 (m, 3H); HRMS (ESI) m/z calcd for C9H17NO5PS [M+H]^+ 282.0565, found 282.0645.\nBriefly, to a solution of DEIVP (500.0 mg, 2.222 mmol), in a biotage microwave vial, was added bromotrimethylsilane (1.333 mL, […]). The tube was purged with argon, covered and heated at 400 W for 10 min. The contents of the vial were transferred to a round bottom flask, the vial was washed with dichloromethane (3×3 mL) which was transferred to the flask. The solvent and excess bromotrimethylsilane were removed in vacuo. To the flask was added dichloromethane (10 mL), which was subsequently removed in vacuo to aid in the removal of any residual bromotrimethylsilane. To the flask was added dichloromethane (9 mL) and, to this solution, with stirring, was added a solution of bromine ([…]) in dichloromethane (3 mL). The resultant solution was heated to reflux for 15 min and the solvent was removed in vacuo. […]"}}, "note": "“Also recorded” adds a separate entry of the source."}
{"smiles": "CCCCCCC1=C(P(=O)(O)O)N[C@H](C(=O)OCC)CS1", "note": "[2-n-hexyl-LKE-P]", "values": [{"measurement": "cell number", "setting": "[1]; 48 h", "value": "dose-dependent reduction in the cell number"}, {"measurement": "replication of cultures", "setting": "[1]; first 24 h", "value": "replicated more slowly"}]}
{"smiles": "CC(C)C1=C(P(=O)(O)O)NCCS1", "note": "[2-isopropyl AECK-P, AminoEthyl Cysteine Ketimine-Phosphonate]", "values": [{"measurement": "stimulation of autophagy / autophagic flux (LC3-II increase in presence of bafilomycin-A1)", "setting": "[2]", "value": "can enter cells to elicit a response"}, {"measurement": "potency of autophagy stimulation relative to LKE (ratio of LC3-II band densities)", "setting": "[2]", "value": "comparable activity"}]}
{"smiles": "CCOC(=O)C1CSC=C(C(=O)O)N1", "note": "(stereo not shown) [LKE, lanthionine ketimine-ethyl ester]", "values": [{"measurement": "amyloid reducing activity", "setting": "[3]", "value": "decreasing production of native Aβ(1-40)"}, {"measurement": "amyloid burden, phospho-tau, microglial activation, cognitive decline", "setting": "[4]", "value": "decreases amyloid burden inside neurons and in plaques, decreases phospho-tau accumulation, decreases microglial activation, and slows cognitive decline"}, {"measurement": "stimulation of autophagy / autophagic flux (LC3-II increase in presence of bafilomycin-A1)", "setting": "[2]", "value": "enter into cells and stimulate autophagy to varying degrees"}, {"measurement": "βββ penetrability", "setting": "[5]", "value": "good βββ penetrability"}, {"measurement": "neurotrophic activity", "setting": "[6]", "value": "potentiating growth factor-dependent neurite growth"}, {"measurement": "anti-neuroinflammatory activity", "setting": "[7]", "value": "decreasing microglial response to inflammatory cytokines"}, {"measurement": "axonal transport enhancement", "setting": "[8]", "value": "potentiating anterograde trafficking and delivery of synaptic proteins to the distal axon"}, {"measurement": "lifespan and motor function", "setting": "[9]", "value": "increases lifespan and slows decline of motor function"}, {"measurement": "EC50", "setting": "[10]", "value": "~0.05", "unit": "µM"}, {"measurement": "tumor growth", "setting": "[11]", "value": "slows growth of C6 glioma tumor"}, {"measurement": "infarct volume and functional recovery", "setting": "[12]", "value": "decreases infarct volume and improves functional recovery"}, {"measurement": "antioxidant activity", "setting": "[13]", "value": "protecting cells against H2O2 or t-butyl hydroperoxide"}, {"measurement": "anti-excitotoxin activity", "setting": "[14]", "value": "protecting neurons from glutamate toxicity"}]}
{"smiles": "CCOC(=O)[C@@H]1CSC(C(C)N2CCCC2=O)=C(C(=O)O)N1", "note": "(single isomer, unassigned) [NVP-LKE]", "values": [{"measurement": "stimulation of autophagy / autophagic flux (LC3-II increase in presence of bafilomycin-A1)", "setting": "[2]", "value": "stimulates autophagy in RG2 cells"}, {"measurement": "potency of autophagy stimulation relative to LKE (ratio of LC3-II band densities)", "setting": "[2]", "value": "better autophagy activation than LKE; also recorded: more potent autophagy stimulator than LKE"}, {"measurement": "suppression of nitric oxide (nitrite) production / microglial activation relative to LKE", "setting": "[15]", "value": "maintains or gains potency over LKE; also recorded: equal or superior to LKE; also recorded: as potent or more potent than LKE"}]}
{"smiles": "O=C(O)C1=CSC[C@@H](C(=O)O)N1", "note": "[LK, (5R)-3,5,-dicarboxy-1-thia-4-aza-2-cyclohexene, reference compound]", "values": [{"measurement": "stimulation of autophagy / autophagic flux (LC3-II increase in presence of bafilomycin-A1)", "setting": "[2]", "value": "increase autophagic flux"}]}
{"smiles": "CCCCC1=C(P(=O)(O)O)N[C@H](C(=O)O)CS1", "values": [{"measurement": "stimulation of autophagy / autophagic flux (LC3-II increase in presence of bafilomycin-A1)", "setting": "[2]", "value": "enter into cells and stimulate autophagy to varying degrees"}, {"measurement": "potency of autophagy stimulation relative to LKE (ratio of LC3-II band densities)", "setting": "[2]", "value": "comparable activity"}, {"measurement": "potency of autophagy stimulation relative to LKE (ratio of LC3-II band densities)", "setting": "[2]; listed as 2-butyl-LK-P", "value": "more effective at inducing autophagic flux than, inter alia, LK-E"}, {"measurement": "stability to high vacuum pressures", "setting": "[16]", "value": "stable to high vacuum pressures at least overnight without visual or spectral decomposition"}]}
{"smiles": "CC(C)C1=C(P(=O)(O)O)N[C@H](C(=O)O)CS1", "note": "[2-isopropyl-LK-P, 2-isopropyl lanthionine ketimine phosphonate]", "values": [{"measurement": "stimulation of autophagy / autophagic flux (LC3-II increase in presence of bafilomycin-A1)", "setting": "[2]", "value": "stimulates autophagy in RG2 cells at low micromolar concentrations; also recorded: enter into cells and stimulate autophagy to varying degrees; also recorded: increase autophagic flux"}, {"measurement": "potency on autophagic flux relative to LK", "setting": "[2]; at 10 μM", "value": "clearly more potent at 10 μM than LK was"}, {"measurement": "potency on autophagic flux relative to LK", "setting": "[2]; at 10 mM (FIG. 6 legend)", "value": "clearly was more potent at 10 mM than was LK"}, {"measurement": "potency of autophagy stimulation relative to LK", "setting": "[2]; visual inspection of western blot", "value": "much more potent stimulator of autophagy than LK"}, {"measurement": "potency of autophagy stimulation relative to LKE (ratio of LC3-II band densities)", "setting": "[2]", "value": "comparable activity"}, {"measurement": "stability to high vacuum pressures", "setting": "[16]", "value": "stable to high vacuum pressures at least overnight without visual or spectral decomposition"}]}
